The record followed here is US20110071094A1, “(D)-ALLOSE INDUCING PROGRAMMED CELL DEATH IN HORMONE REFRACTORY PROSTATE CANCER LINES” (INDUSTRY-ACADEMIC COOPERATION FOUDATION, GYEONGSANG …, priority 2008, published 2011).

Structures are written as SMILES.

In test [1] the test system is DU145 cell line. Put plainly: Apoptotic indices by DAPI staining, confocal microscopy. The format is cell-based, human. Particulars: DU145, 24, 48 and 72 h. On the procedure: The Annexin-V-FLUOS Staining Kit (Roche Diagnostics GmbH, Mannheim, Germany) was used for the detection and quantification of the apoptotic cells. This kit uses a dual-staining protocol in which the apoptotic cells are stained with annexin-V (green fluorescence) and the necrotic cells are stained with propidium iodide (PI, red fluorescence). Briefly, DU145 cell line was grown at a density of 1×10^6 cells in triplicate culture plates and then treated with D-allose (0, 20 and 40 mM) for 48 and 72 h. The cells were treated with trypsin and harvested with PBS and processed for labeling with annexin-V and PI by the use of the kit according to the manufacturer's protocol. The fluorescence was measured by flow cytometric analysis, performed on a FACSCalibur (Becton Dickinson, San Jose, Calif., USA) using 488 nm excitation and a 515 nm band pass filter for fluorescein detection and a filter [600 nm for PI detection (FL1: Annexin-V-FLUOS; FL2: PI). Further, apoptotic indices were measured by analysis of fragmented or scattered nuclei and condensed chromosome as the stringent morphological criteria of apoptosis, detectable by confocal microscopy on cells stained with DNA-intercalating dye […] (DAPI). For this purpose, DU145 and PrEC cell lines were exposed to 0, 20 and 40 mM of D-allose for up to 72 h, stained with DAPI (1 μg/ml in methanol), mounted with Prolong Antifade reagent (Molecular Probes, Eugene, Oreg., USA), and images were acquired by use of a confocal laser scanning microscope (Fluoview FV 1000, Olympus, Japan). The numbers of apoptotic nuclei per 100 cells were counted from the five high power fields/slide and apoptotic indices were expressed as a percentage of the untreated controls in each cell line, considering the value as 100%. DU145 cell line was also treated with 0-40 mM of D-glucose for determination of apoptotic indices as mentioned above.

For test [2], the system named is DU145 cell line. Briefly: Cell viability / cell growth, MTT assay. The format is cell-based, human. Particulars: DU145, 0-40 mM, compared to control. As for the experimental part:
DU145 (human HRPC cell line, derived from a patient with brain metastasis) and PrEC (human normal prostate epithelial cell line) cell lines were obtained from Korea Cell Line Bank (KCLB, Seoul, South Korea). DU145 and PrEC cell lines were grown in triplicate culture plates containing RPMI-1640 (HyClone, Logan, Utah, USA) and Dulbecco's Modified Eagle's Medium (HyClone, Logan, Utah, USA) respectively, and kept in a humidified atmosphere containing 5% CO2 at 37° C. for 72 h. The media were supplemented with 10% heat-inactivated fetal bovine serum (HyClone, Logan, Utah, USA), 1% antibio-antimicotic solution containing 10,000 units/ml of penicillin and 10 mg/ml of streptomycin (HyClone, Logan, Utah, USA), HEPES, sodium bicarbonate, p-aminobenzoic acid and insulin (complete culture media). D-Allose was purchased from Sigma (St. Louis, Mo., USA) and dissolved at a concentration of 1 M in sterile phosphate-buffered saline (PBS), and was further sterilized by filtration. To examine the dose- and time-dependent effects, the cell lines (70-80% confluent) were treated with 0-40 mM of D-allose for up to 72 h, whereas without D-allose treated cell lines (0 mM) were considered as control. DU145 cell line was also treated with 0-40 mM of D-glucose. All the other chemicals used in the work were procured from Sigma (St. Louis, Mo., USA), unless otherwise specified.
The logarithmic growth phase of DU145 and PrEC cell lines were taken for growth assay using 3-[4,5-dimethylthiazol-2-yl]-2,5-diphenyl tetrazolium bromide (MTT). […] After incubation for the specified time at 37° C. in a humidified 5% CO2 incubator, cell viability was determined. […] To achieve solubilization of formazan crystal formed in viable cells, DMSO was added to each well, and the absorbance was recorded on a microplate reader at 595 nm wavelength. The effect of sugars on growth inhibition was assessed as percent cell viability where control cells were taken as 100% viable.
For orientation: Tetrazolium assays rely on reduction of a dye to a coloured formazan, in cell work by metabolically active cells.

In the case of `O=C[C@H](O)[C@@H](O)[C@H](O)[C@H](O)CO` [D-glucose, reference compound], the “programmed cell death (apoptotic indices, DAPI staining)” value in the test on DU145 cell line [1] is given as “no remarkable effect”. In the test with DU145 cell line [2], the “cell growth (MTT assay)” value is reported as “significant increase of cell growth in a dose-dependent manner”.
